Values of other authors in patent US20200121704A1, “METHODS FOR TREATING HYPERTENSION AND ARTERIAL STIFFNESS” (THE REGENTS OF THE UNIVERSITY OF COLORADO, A BODY CORPORATE, priority 2017, published 2020).

Assays:
ET-1 = settings: animal models of hypercholesterolemia and cardiac hypertrophy; cited from earlier work
endothelial cells = settings: cited from earlier work
Klotho deficient mice = settings: cited from earlier work
old mice = settings: supplementation; cited from earlier work

Oc1ccc(C=Cc2cc(O)cc(O)c2)cc1 [resveratrol]
Circulating ET-1 levels (ET-1): decreases circulating ET-1 levels
Secretion of ET-1 by endothelial cells (endothelial cells): suppressed

O=C(Nc1ccccc1-c1cn2c(CN3CCNCC3)csc2n1)c1cnc2ccccc2n1 [SRT1720]
Development of hypertension (Klotho deficient mice; Klotho deficient mice (a model of accelerated aging)): protects against the development of hypertension
Development of arterial stiffness (Klotho deficient mice; klotho deficient mice): prevented the development of arterial stiffness

NC(=O)c1ccc[n+]([C@@H]2O[C@H](COP(=O)([O-])O)[C@@H](O)[C@H]2O)c1 [NMN, nicotinamide mononucleotide]
Aortic stiffening (old mice): reverses aortic stiffening in old mice to youthful levels
